Here are results for 4 compounds from paper PMC12257394, “Design, Synthesis, and Biological Evaluation of Ferrocenyl–Cyclo-(Gly‑L‑Pro) Hybrids Sensitizing Multidrug-Resistant Cancer Cells to Anticancer Agents” (ACS Medicinal Chemistry Letters, 2025).

Holding throughout (format): cell-based, human
For one data set, the system named is MRC-5 fibroblasts. Kind of data set: Neutral red uptake viability assay, MRC-5. As to conditions: MRC-5, 10 μM, 72 h exposure, n = 3, ± SD. Here is the method: (§1) The normal lung fibroblast MRC-5 and colorectal adenocarcinoma SW620 cell lines used in this experiment were purchased from American Type Culture Collection (USA) via LGC […]
(§2) Standards. Multidrug-resistant variants of SW620 cells were developed in our laboratory as described previously.10, 11 All cells were cultured under standard conditions (37°C, 5% CO2, 100% humidity) in high-glucose DMEM supplemented with GlutaMaxTM, HEPES (ThermoFisher Scientific, USA), and 10% fetal bovine serum (EURx, Poland). Cells were routinely tested for potential Mycoplasma contamination using the MycoProbe Mycoplasma Detection kit (R&D System, USA).
(§3) In total, 104 cells in 100 µL of complete medium were plated per well of a 96-well plate and left overnight to allow cells to adhere to the surface. Then, the cells were exposed to a desired concentration of tested compound(s). Stock solutions were prepared in DMSO and used immediately. The final DMSO concentration was constant and nontoxic (0.1% v/v). After 70-h incubation, neutral red was added to the final concentration of 1 mM. After another 2 h, the medium was aspirated, and cells were washed twice with PBS. Dye was released using 100 µL of a solubilizer (1% acetic acid in 50% ethanol) on an orbital shaker (10 min). Absorbance was read at 540 nm using EnVision Multilabel Plate Reader (Perkin Elmer, USA). Results were expressed as % of control. The IC50 parameters were calculated using GraphPad Prism version 10 (GraphPad Software, Boston, Massachusetts USA). […]
(§4) All experiments were performed in triplicate (n = 3).

For data set [1], the system named is SW620 cells. The data set can be described thus: Neutral red uptake viability assay, SW620. Conditions: for survival rate: 72 h, n = 3, ± SD; for IC50: SW620, 72 h, n = 3, read-out: Cytotoxic activity IC50 (95% CI). Here is the method:
(§5) To evaluate this aspect, we investigated the viability of SW620 colon cancer cells and their multidrug-resistant variants (overexpressing ABCB1, ABCC1, and ABCG2) exposed to 1 and 10 μM 4a–e using a neutral red uptake assay (Table ). In general, compounds 4a–e exerted little or no cytotoxic effect on either SW620 or multidrug-resistant sublines even at 10 μM, with the remarkable exception of SW620C (cisplatin-selected variant of SW620) cells, which turned out to be relatively susceptible toward ferrocenyl 4a–c. […] This trend may reflect steric or electronic contributions to cellular uptake or interaction with intracellular targets. […] However, since E/Z isomeric data are currently available only for compound 4c, this hypothesis requires validation. To quantify this effect, IC50 values were determined (Table ). […]
as §1, §2, §3, §4

The next data set relates to SW620D cells. The data set can be described thus: Synergy determination (Bliss model, SynergyFinder), SW620D. Conditions: drug doxorubicin + additive; for synergy score: Bliss model. The source says:
(§6) In an ideal setting, the effect of cell exposure to a combination of a chemotherapeutic and an MDR inhibitor should be synergistic. […] The highest synergy scores identified an optimal concentration range where the combination exerted its maximal effect. […] In cisplatin-resistant SW620C cells, the low or lack of synergy observed for most compounds may be due to the additive effects of cisplatin and 4 rather than a true synergistic interaction. […]
(§7) To evaluate the potential interactions between putative ABC inhibitors and anticancer drugs, we utilized the Bliss independence model, as implemented in the SynergyFinder web application.13, 14 Synergy scores and the most synergistic area scores were calculated based on the normalized dose–response matrices. A synergy score below −10 indicates likely […]
(§8) above 10 is indicative of likely synergistic interactions.
(§9) All experiments were performed at least three times, and the data were statistically analyzed

In data set [2] the test system is SW620 cells. The data set can be described thus: Synergy determination (Bliss model, SynergyFinder), SW620.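 Note: score below −10 means likely antagonism and −10 to 10 means additive.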
Excerpt: as §6, §7, §8, §9

The test system of data set [3] is SW620M cells (methotrexate-resistant). The data set can be described thus: Neutral red uptake viability assay, SW620M. Conditions: 72 h; for survival rate: n = 3, ± SD; for IC50: n = 3, read-out: Cytotoxic activity IC50 (95% CI). Here is the method:
In general, compounds 4a–e exerted little or no cytotoxic effect on either SW620 or multidrug-resistant sublines even at 10 μM, with the remarkable exception of SW620C (cisplatin-selected variant of SW620) cells, which turned out to be relatively susceptible toward ferrocenyl 4a–c. […] This trend may reflect steric or electronic contributions to cellular uptake or interaction with intracellular targets. […] However, since E/Z isomeric data are currently available only for compound 4c, this hypothesis requires validation. To quantify this effect, IC50 values were determined (Table ). […]
as §1, §2, §3, §4

In another data set the test system is SW620Mito cells. Kind of data set: Synergy determination (Bliss model, SynergyFinder), SW620Mito. As to conditions: drug mitoxantrone + additive, SW602Mito; for synergy score: Bliss model.
Excerpt: as §6, §7, §8, §9

In data set [4] the test system is ABCG2-overexpressing SW620Mito cells. Kind of data set: MDR reversal assay (ERP), SW620Mito. As to conditions: for ERP value, mitoxantrone + compound: SW620Mito (xlsx); for ERP = IC50(drug)MDR/IC50(drug+4)MDR: mitoxantrone, SW620Mito.
Excerpt: We investigated the potency of 4a–e to inhibit ABC transporters (ABCB1, ABCC1, and ABCG2) by determining their enhancement of reversal potency (ERP) values. ERP represents fold changes in the IC50 values of anticancer drugs in multidrug-resistant cancer sublines (ABCB1-overexpressing SW620D, SW620E, and SW620V; ABCC1-overexpressing SW620M; ABCG2-overexpressing SW620C and SW620Mito) exposed to a combination of the investigated compounds and anticancer agents at equimolar concentrations, compared with values obtained with drugs alone (Tables S2 and S3 and Figure ).
as §2
In total, 104 cells in 100 µL of complete medium were plated per well of a 96-well plate and left overnight to allow cells to adhere to the surface. Then, the cells were exposed to a desired concentration of tested compound(s). Stock solutions were prepared in DMSO and used immediately. The final DMSO concentration was constant and nontoxic (0.1% v/v). After 70-h incubation, neutral red was added to the final concentration of 1 mM. After another 2 h, the medium was aspirated, and cells were washed twice with PBS. Dye was released using 100 µL of a solubilizer (1% acetic acid in 50% ethanol) on an orbital shaker (10 min). Absorbance was read at 540 nm using EnVision Multilabel Plate Reader (Perkin Elmer, USA). Results were expressed as % of control. The IC50 parameters were calculated using GraphPad Prism version 10 (GraphPad Software, Boston, Massachusetts USA).
The enhancement of reversal potency (ERP) value determination
For MDR reversal assays, cytotoxic agents were co-administered with compounds 4a–4e at equimolar concentrations in a range of 10 nM to 100 µM. IC₅₀ values were determined in ABCB1-overexpressing SW620 cell line variants. The enhancement of reversal potency (ERP) was calculated using the following formula: ERP = IC₅₀(drug)MDR / IC₅₀(drug + compound)MDR. All experiments were performed in triplicate (n = 3).

For data set [5], the system named is SW620E cells (etoposide-resistant). Kind of data set: Neutral red uptake viability assay, SW620E. As to conditions: 72 h; for survival rate: n = 3, ± SD; for IC50: n = 3, read-out: Cytotoxic activity IC50 (95% CI). Here is the method:
as §5, §1, §2, §3, §4

For `O=C1N/C(=C\c2ccc(-[c-]3cccc3)cc2)C(=O)N2CCC[C@@H]12.[Fe+2].c1cc[cH-]c1` [(S,Z)-4d], the survival rate was found to be 101 ± 7% with MRC-5 fibroblasts; 97 ± 3.0% with SW620 cells [1] (SW620, 1 μM); 97 ± 2.1% in the data set with SW620 cells [1] (SW620, 10 μM); 99 ± 0.8% in data set [3] (1 μM); 95 ± 1.5% in data set [3] (10 μM); 97 ± 0.8% in data set [5] (1 μM). In data set [5] (10 μM), this compound yielded a survival rate of 94 ± 2.5%. Besides, the IC50 (with SW620 cells [1]; in data set [3]; in data set [5]) was more than 100 µM each time. In addition, the “most synergistic area score” value was 17.81 with SW620D cells and 27.66 with SW620Mito cells. Moreover, the synergy score in the data set on SW620D cells was 7.37; in the data set on SW620Mito cells, 17.05. For the same compound, the “synergy score (in parentheses)” value in the data set with SW620 cells [2] (drug cisplatin + additive) is recorded as −2.46; with SW620 cells [2] (drug etoposide + additive), 0.64; in the data set with SW620 cells [2] (drug methotrexate + additive) it was −2.64; in the data set with SW620 cells [2] (drug mitoxantrone + additive) it was -1.93; in the data set with SW620 cells [2] (drug vincristine + additive) it was -1.29. For the same compound, the “ERP value, mitoxantrone + compound” value in data set [4] is given as 10.3. In addition, in data set [4], the “ERP = IC50(drug)MDR/IC50(drug+4)MDR” value was 10.3.
In the case of `O=C1N/C(=C\c2ccccc2-[c-]2cccc2)C(=O)N2CCC[C@@H]12.[Fe+2].c1cc[cH-]c1` [(S,Z)-4b], the survival rate in the data set on MRC-5 fibroblasts came out at 92 ± 8.7%; with SW620 cells [1] (SW620, 1 μM) it was 91 ± 8.0%; in the data set with SW620 cells [1] (SW620, 10 μM), 84 ± 13%; in data set [3] (1 μM), 97 ± 0.8%; in data set [3] (10 μM), 96 ± 3.5%; in data set [5] (1 μM), 93 ± 1.2%. The compound further showed a survival rate in data set [5] (10 μM) of 99 ± 0.8%. Moreover, the IC50 (commonly the midpoint of a concentration-inhibition curve) was more than 100 µM in the data set with SW620 cells [1], 52.2 µM in data set [3] and more than 100 µM in data set [5]. Moreover, the “most synergistic area score” value with SW620D cells came out at 11.62; in the data set with SW620Mito cells, 19.63. In addition, the results for the synergy score in the data set on SW620D cells and in the data set on SW620Mito cells were 3.96 and 11.11, respectively. Besides, the “synergy score (in parentheses)” value in the data set on SW620 cells [2] (drug cisplatin + additive) is recorded as −5.00; in the data set with SW620 cells [2] (drug doxorubicin + additive), −2.67; in the data set with SW620 cells [2] (drug etoposide + additive) it was −5.23; with SW620 cells [2] (drug methotrexate + additive), 3.26; in the data set with SW620 cells [2] (drug mitoxantrone + additive), −3.17; with SW620 cells [2] (drug vincristine + additive) it was 5.77. For the same compound, the “ERP value, mitoxantrone + compound” value in data set [4] worked out at 9.11. Also, the “ERP = IC50(drug)MDR/IC50(drug+4)MDR” value in data set [4] worked out at 9.11.
As to `O=C1N/C(=C/c2cccc(-[c-]3cccc3)c2)C(=O)N2CCC[C@@H]12.[Fe+2].c1cc[cH-]c1` [(S,E)-4c], the survival rate in the data set on MRC-5 fibroblasts was 110 ± 10%; in the data set on SW620 cells [1] (SW620, 1 μM) it was 95 ± 3.4%; with SW620 cells [1] (SW620, 10 μM), 95 ± 6.0%; in data set [3] (1 μM), 93 ± 1.8%; in data set [3] (10 μM), 96 ± 4.6%; in data set [5] (1 μM) it was 95 ± 2.1%. For the same compound, the survival rate in data set [5] (10 μM) came to 91 ± 0.8%. For the same compound, the IC50 (in the data set on SW620 cells [1]; in data set [3]; in data set [5]) was more than 100 µM each time. Further, the figures for the “most synergistic area score” value in the data set on SW620D cells and in the data set on SW620Mito cells were 1.68 and 0.67, respectively. Also, the synergy score entry was “–3.01” in the data set on SW620D cells and “–4.74” in the data set on SW620Mito cells. Besides, the “synergy score (in parentheses)” value in the data set on SW620 cells [2] (drug cisplatin + additive) is reported as −4.66; in the data set on SW620 cells [2] (drug doxorubicin + additive), −1.89; in the data set with SW620 cells [2] (drug etoposide + additive) it was −4.80; with SW620 cells [2] (drug methotrexate + additive), −4.31; in the data set on SW620 cells [2] (drug mitoxantrone + additive) it was 0.86. In addition, in data set [4], the “ERP value, mitoxantrone + compound” value came out at 0.87. In data set [4], the “ERP = IC50(drug)MDR/IC50(drug+4)MDR” value was 0.87.
Turning to `O=C1N/C(=C\[c-]2cccc2)C(=O)N2CCC[C@@H]12.[Fe+2].c1cc[cH-]c1` [(S,Z)-4a], the survival rate in the data set with MRC-5 fibroblasts was determined as 106 ± 13%; in the data set with SW620 cells [1] (SW620, 1 μM), 95 ± 2.2%; in the data set on SW620 cells [1] (SW620, 10 μM) it was 88 ± 6.0%; in data set [3] (1 μM) it was 93 ± 0.9%; in data set [3] (10 μM), 98 ± 2.3%; in data set [5] (1 μM), 93 ± 0.8%. In addition, in data set [5] (10 μM), the survival rate came to 94 ± 3.0%. Besides, the IC50 (in the data set on SW620 cells [1]; in data set [3]; in data set [5]) was more than 100 µM in each case. The results for the “most synergistic area score” value in the data set on SW620D cells and in the data set with SW620Mito cells were 20.51 and 16.82, respectively. Besides, the synergy score is listed as 6.30 in the data set with SW620D cells and 7.86 with SW620Mito cells. Moreover, the “synergy score (in parentheses)” value is reported as −4.74 with SW620 cells [2] (drug cisplatin + additive); −4.15 in the data set on SW620 cells [2] (drug doxorubicin + additive); −4.45 with SW620 cells [2] (drug etoposide + additive); −5.99 with SW620 cells [2] (drug methotrexate + additive); −1.66 in the data set with SW620 cells [2] (drug mitoxantrone + additive); −0.36 with SW620 cells [2] (drug vincristine + additive). In addition, the “ERP value, mitoxantrone + compound” value in data set [4] was 4.61. Further, the “ERP = IC50(drug)MDR/IC50(drug+4)MDR” value in data set [4] is 4.61.
